Read-outs that look alike come from different tables or passages of the source. Peptide text beside a SMILES is read from it. * marks the point of attachment. Lauroyl = CCCCCCCCCCCC(=O)*

Data set [1] addresses T1, human GIP receptor (Homo sapiens, UniProt P48546).
T1 construct: host or cells: COS-7, transient transfection (calcium phosphate), cDNA in pCMV-Script
T1 sequence (P48546 22-466): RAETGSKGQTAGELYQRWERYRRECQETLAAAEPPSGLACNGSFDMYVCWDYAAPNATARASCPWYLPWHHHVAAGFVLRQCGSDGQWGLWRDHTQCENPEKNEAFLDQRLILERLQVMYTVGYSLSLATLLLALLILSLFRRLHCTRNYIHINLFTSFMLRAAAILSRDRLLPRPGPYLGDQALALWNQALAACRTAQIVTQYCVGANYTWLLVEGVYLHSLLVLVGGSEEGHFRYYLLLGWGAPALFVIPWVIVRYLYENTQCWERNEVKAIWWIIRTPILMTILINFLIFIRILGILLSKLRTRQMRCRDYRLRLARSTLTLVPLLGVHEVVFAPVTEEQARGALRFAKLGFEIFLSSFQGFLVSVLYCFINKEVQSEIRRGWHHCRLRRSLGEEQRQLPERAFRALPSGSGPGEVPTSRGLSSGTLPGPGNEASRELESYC
The data set can be described thus: cAMP accumulation assay, agonism (ligand alone). In kind it is cell-based. The note with it: COS-7 cells, Table 1; for Emax: COS-7, intrinsic cAMP activity; for EC50: read-out: cAMP agonism nM (EC50).

Data set [2] deals with T1, human GIP receptor. The data set can be described thus: 125I-human GIP competition binding assay, in the presence and absence of 2% HSA.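 As to all read-outs here: nonspecific binding taken as radioligand bound to untransfected cells, IC50 obtained from nonlinear regression fits.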 Particulars: for Fold change HSA (2%)/Casein (0.1%): IC50 (plus HSA)/IC50 (minus HSA); for Binding fold (paired): fold decrease in affinity compared to GIP(3-30)NH2.
Where [3] appears, read: binding in 0.1% casein (absence of HSA), log value, read-out: logIC50 0.1% casein (converted).
[4] abbreviates: heterologous competition binding, transiently transfected COS-7 cells expressing the human GIP receptor, read-out: Binding.
[5] abbreviates: Table 3b, initial data, read-out: Binding IC50.

`CC[C@H](C)[C@H](NC(=O)[C@H](CO)NC(=O)[C@H](Cc1ccc(O)cc1)NC(=O)[C@H](CC(=O)O)NC(=O)[C@H](CO)NC(=O)[C@@H](NC(=O)[C@H](Cc1ccccc1)NC(=O)[C@@H](N)[C@@H](C)O)[C@@H](C)CC)C(=O)N[C@@H](C)C(=O)N[C@@H](CCSC)C(=O)N[C@@H](CC(=O)O)C(=O)N[C@@H](CCCCNC(=O)CCCCCCCCCCCCC(=O)O)C(=O)N[C@H](C(=O)N[C@@H](Cc1c[nH]cn1)C(=O)N[C@@H](CCC(N)=O)C(=O)N[C@@H](CCC(N)=O)C(=O)N[C@@H](CC(=O)O)C(=O)N[C@@H](Cc1ccccc1)C(=O)N[C@H](C(=O)N[C@@H](CC(N)=O)C(=O)N[C@@H](Cc1c[nH]c2ccccc12)C(=O)N[C@@H](CC(C)C)C(=O)N[C@@H](CC(C)C)C(=O)N[C@@H](C)C(=O)N[C@@H](CCC(N)=O)C(=O)N[C@@H](CCCCN)C(N)=O)C(C)C)[C@@H](C)CC` [AT139, [hGIP(5-30)NH2—C14diacid/16]]: at human GIP receptor [1], the maximal effect (Emax) was 0%. Moreover, at human GIP receptor [2], the “Fold change HSA (2%)/Casein (0.1%)” value was 2.6. Further, the values for the IC50 at human GIP receptor [2] (setting [3]) and at human GIP receptor [2] (setting [4]) were 0.158 µM and 0.153 µM, respectively.
On to `CCCCCCCCCCCCCCCC(=O)N[C@H](C(=O)N[C@@H](Cc1ccccc1)C(=O)N[C@H](C(=O)N[C@@H](CO)C(=O)N[C@@H](CC(=O)O)C(=O)N[C@@H](Cc1ccc(O)cc1)C(=O)N[C@@H](CO)C(=O)N[C@H](C(=O)N[C@@H](C)C(=O)N[C@@H](CCSC)C(=O)N[C@@H](CC(=O)O)C(=O)N[C@@H](CCCCN)C(=O)N[C@H](C(=O)N[C@@H](Cc1c[nH]cn1)C(=O)N[C@@H](CCC(N)=O)C(=O)N[C@@H](CCC(N)=O)C(=O)N[C@@H](CC(=O)O)C(=O)N[C@@H](Cc1ccccc1)C(=O)N[C@H](C(=O)N[C@@H](CC(N)=O)C(=O)N[C@@H](Cc1c[nH]c2ccccc12)C(=O)N[C@@H](CC(C)C)C(=O)N[C@@H](CC(C)C)C(=O)N[C@@H](C)C(=O)N[C@@H](CCC(N)=O)C(=O)N[C@@H](CCCCN)C(N)=O)C(C)C)[C@@H](C)CC)[C@@H](C)CC)[C@@H](C)CC)[C@@H](C)O` [AT124, [hGIP(5-30)NH2—C16/5]], for which the maximal response (Emax) on human GIP receptor [1] was 0%. In addition, the “Fold change HSA (2%)/Casein (0.1%)” value on human GIP receptor [2] was determined as 5.2. For the same molecule, the IC50 on human GIP receptor [2] (setting [3]) is 1.58 µM.
On to `CCCCCCCCCCCC(=O)NCCCC[C@H](NC(=O)[C@H](CC(=O)O)NC(=O)[C@H](CCSC)NC(=O)[C@H](C)NC(=O)[C@@H](NC(=O)[C@H](CO)NC(=O)[C@H](Cc1ccc(O)cc1)NC(=O)[C@H](CC(=O)O)NC(=O)[C@H](CO)NC(=O)[C@@H](NC(=O)[C@H](Cc1ccccc1)NC(=O)[C@@H](NC(=O)CNC(=O)[C@@H](N)CCC(=O)O)[C@@H](C)O)[C@@H](C)CC)[C@@H](C)CC)C(=O)N[C@H](C(=O)N[C@@H](CCCNC(=N)N)C(=O)N[C@@H](CCC(N)=O)C(=O)N[C@@H](CCC(N)=O)C(=O)N[C@@H](CC(=O)O)C(=O)N[C@@H](Cc1ccccc1)C(=O)N[C@H](C(=O)N[C@@H](CC(N)=O)C(=O)N[C@@H](Cc1c[nH]c2ccccc12)C(=O)N[C@@H](CC(C)C)C(=O)N[C@@H](CC(C)C)C(=O)N[C@@H](C)C(=O)N[C@@H](CCC(N)=O)C(=O)N[C@@H](CCCNC(=N)N)C(N)=O)C(C)C)[C@@H](C)CC` [AT153, [hGIP(3-30)NH2[H18R; K30R]-C12/16]], for which the maximum response (Emax) at human GIP receptor [1] is 0%. The IC50 at human GIP receptor [2] (setting [4]) worked out at 0.316 µM.
`CCCCCCCCCCCCCCCC(=O)N[C@@H](CCC(=O)O)C(=O)NCC(=O)N[C@H](C(=O)N[C@@H](Cc1ccccc1)C(=O)N[C@H](C(=O)N[C@@H](CO)C(=O)N[C@@H](CC(=O)O)C(=O)N[C@@H](Cc1ccc(O)cc1)C(=O)N[C@@H](CO)C(=O)N[C@H](C(=O)N[C@@H](C)C(=O)N[C@@H](CCSC)C(=O)N[C@@H](CC(=O)O)C(=O)N[C@@H](CCCCN)C(=O)N[C@H](C(=O)N[C@@H](Cc1c[nH]cn1)C(=O)N[C@@H](CCC(N)=O)C(=O)N[C@@H](CCC(N)=O)C(=O)N[C@@H](CC(=O)O)C(=O)N[C@@H](Cc1ccccc1)C(=O)N[C@H](C(=O)N[C@@H](CC(N)=O)C(=O)N[C@@H](Cc1c[nH]c2ccccc12)C(=O)N[C@@H](CC(C)C)C(=O)N[C@@H](CC(C)C)C(=O)N[C@@H](C)C(=O)N[C@@H](CCC(N)=O)C(=O)N[C@@H](CCCCN)C(N)=O)C(C)C)[C@@H](C)CC)[C@@H](C)CC)[C@@H](C)CC)[C@@H](C)O` [AT104, [hGIP(3-30)NH2—C16/3]] had an Emax on human GIP receptor [1] of 81%. Besides, the IC50 at human GIP receptor [2] (setting [5]) and on human GIP receptor [2] (setting [4]) was 0.075 µM in each case. The “Binding fold (paired)” value at human GIP receptor [2] (Table 3b) is on record as 4.9 fold.
Take `CCCCCCCCCCCCCCCCCC(=O)N[C@@H](CCC(=O)O)C(=O)NCC(=O)N[C@H](C(=O)N[C@@H](Cc1ccccc1)C(=O)N[C@H](C(=O)N[C@@H](CO)C(=O)N[C@@H](CC(=O)O)C(=O)N[C@@H](Cc1ccc(O)cc1)C(=O)N[C@@H](CO)C(=O)N[C@H](C(=O)N[C@@H](C)C(=O)N[C@@H](CCSC)C(=O)N[C@@H](CC(=O)O)C(=O)N[C@@H](CCCCN)C(=O)N[C@H](C(=O)N[C@@H](Cc1c[nH]cn1)C(=O)N[C@@H](CCC(N)=O)C(=O)N[C@@H](CCC(N)=O)C(=O)N[C@@H](CC(=O)O)C(=O)N[C@@H](Cc1ccccc1)C(=O)N[C@H](C(=O)N[C@@H](CC(N)=O)C(=O)N[C@@H](Cc1c[nH]c2ccccc12)C(=O)N[C@@H](CC(C)C)C(=O)N[C@@H](CC(C)C)C(=O)N[C@@H](C)C(=O)N[C@@H](CCC(N)=O)C(=O)N[C@@H](CCCCN)C(N)=O)C(C)C)[C@@H](C)CC)[C@@H](C)CC)[C@@H](C)CC)[C@@H](C)O` [AT113, [hGIP(3-30)NH2—C18/3]]: at human GIP receptor [1], the Emax is 77% and the EC50 came to 9.9 nM. Moreover, at human GIP receptor [2] (setting [5]), the IC50 came out at 41.4 µM. For the same molecule, the “Binding fold (paired)” value on human GIP receptor [2] (Table 3b) came out at 16380 fold. The IC50 on human GIP receptor [2] (setting [4]) worked out at 41.4 µM.
As to `CCCCCCCCCCCC(=O)NCCCC[C@H](NC(=O)[C@H](CC(=O)O)NC(=O)[C@H](CCSC)NC(=O)[C@H](C)NC(=O)[C@@H](NC(=O)[C@H](CO)NC(=O)[C@H](Cc1ccc(O)cc1)NC(=O)[C@H](CC(=O)O)NC(=O)[C@H](CO)NC(=O)[C@@H](NC(=O)[C@H](Cc1ccccc1)NC(=O)[C@@H](NC(=O)CNC(=O)[C@@H](N)CCC(=O)O)[C@@H](C)O)[C@@H](C)CC)[C@@H](C)CC)C(=O)N[C@H](C(=O)N[C@@H](Cc1c[nH]cn1)C(=O)N[C@@H](CCC(N)=O)C(=O)N[C@@H](CCC(N)=O)C(=O)N[C@@H](CC(=O)O)C(=O)N[C@@H](Cc1ccccc1)C(=O)N[C@H](C(=O)N[C@@H](CC(N)=O)C(=O)N[C@@H](Cc1c[nH]c2ccccc12)C(=O)N[C@@H](CC(C)C)C(=O)N[C@@H](CC(C)C)C(=O)N[C@@H](C)C(=O)N[C@@H](CCC(N)=O)C(=O)N[C@@H](CCCCN)C(N)=O)C(C)C)[C@@H](C)CC` [AT102, [hGIP(3-30)NH2—C12/16]], the concentration giving a half-maximal response (EC50) at human GIP receptor [1] turned out to be 0.7 nM. On human GIP receptor [1] (intrinsic cAMP activity), the “cAMP agonism Emax” value is reported as 66%. In addition, the IC50 at human GIP receptor [2] (setting [5]) and at human GIP receptor [2] (setting [4]) was 0.0591 µM in each case. On human GIP receptor [2] (Table 3b), the “Binding fold (paired)” value was determined as 6.1 fold.
In the case of `CCCCCCCCCCCC(=O)N[C@@H](CCC(=O)O)C(=O)NCC(=O)N[C@H](C(=O)N[C@@H](Cc1ccccc1)C(=O)N[C@H](C(=O)N[C@@H](CO)C(=O)N[C@@H](CC(=O)O)C(=O)N[C@@H](Cc1ccc(O)cc1)C(=O)N[C@@H](CO)C(=O)N[C@H](C(=O)N[C@@H](C)C(=O)N[C@@H](CCSC)C(=O)N[C@@H](CC(=O)O)C(=O)N[C@@H](CCCCN)C(=O)N[C@H](C(=O)N[C@@H](Cc1c[nH]cn1)C(=O)N[C@@H](CCC(N)=O)C(=O)N[C@@H](CCC(N)=O)C(=O)N[C@@H](CC(=O)O)C(=O)N[C@@H](Cc1ccccc1)C(=O)N[C@H](C(=O)N[C@@H](CC(N)=O)C(=O)N[C@@H](Cc1c[nH]c2ccccc12)C(=O)N[C@@H](CC(C)C)C(=O)N[C@@H](CC(C)C)C(=O)N[C@@H](C)C(=O)N[C@@H](CCC(N)=O)C(=O)N[C@@H](CCCCN)C(N)=O)C(C)C)[C@@H](C)CC)[C@@H](C)CC)[C@@H](C)CC)[C@@H](C)O` [AT148, [hGIP(3-30)NH2—C12/3]], on human GIP receptor [1], the Emax amounted to 43% and the concentration for a half-maximal effect (EC50) is 13 nM. Moreover, the IC50 at human GIP receptor [2] (setting [4]) amounted to 0.024 µM.
`CCCCCCCCCCCC(=O)NCCCC[C@H](NC(=O)[C@@H](NC(=O)[C@H](CCCCN)NC(=O)[C@H](CC(=O)O)NC(=O)[C@H](CCSC)NC(=O)[C@H](C)NC(=O)[C@@H](NC(=O)[C@H](CO)NC(=O)[C@H](Cc1ccc(O)cc1)NC(=O)[C@H](CC(=O)O)NC(=O)[C@H](CO)NC(=O)[C@@H](NC(=O)[C@H](Cc1ccccc1)NC(=O)[C@@H](NC(=O)CNC(=O)[C@@H](N)CCC(=O)O)[C@@H](C)O)[C@@H](C)CC)[C@@H](C)CC)[C@@H](C)CC)C(=O)N[C@@H](CCC(N)=O)C(=O)N[C@@H](CCC(N)=O)C(=O)N[C@@H](CC(=O)O)C(=O)N[C@@H](Cc1ccccc1)C(=O)N[C@H](C(=O)N[C@@H](CC(N)=O)C(=O)N[C@@H](Cc1c[nH]c2ccccc12)C(=O)N[C@@H](CC(C)C)C(=O)N[C@@H](CC(C)C)C(=O)N[C@@H](C)C(=O)N[C@@H](CCC(N)=O)C(=O)N[C@@H](CCCCN)C(N)=O)C(C)C` [AT116, [hGIP(3-30)NH2—C12/18]] (H-EGTFISDYSIAMDKIK(Lauroyl)QQDFVNWLLAQK-NH2; N-terminus assumed) showed an Emax on human GIP receptor [1] of 0%. Moreover, on human GIP receptor [2] (presence vs absence of 2% HSA, proxy for albumin binding), the “Fold change in affinity, IC50 (plus HSA)/IC50 (minus HSA)” value was found to be 5.2 fold.

Source of the values: patent US11572399B2, “Long-acting GIP peptide analogues” (University of Copenhagen, priority 2017, dated 2023).
